Experimental data published in ChEMBL document CHEMBL1201862, “PubChem BioAssay data set” (2004).
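Five compound concentrations were applied to cells in 96-well plates for 48 hours; endpoints were derived by simple linear interpolation of the resulting dose-response curve. At the GI50, growth is halved.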 The source made the active and inactive calls. Rule as the data show it: active = GI50 up to about 1.1 µM and inactive = higher.

What was measured:
Assay in all cases: NCI tumour cell line growth inhibition, 48 h
[1] = system: SN12C
[2] = system: SW-620
[3] = system: HCT-116
[4] = system: HCC 2998
[5] = system: UO-31
[6] = system: OVCAR-5
[7] = system: Malme-3M
[8] = system: UACC-257
[9] = system: K562
[10] = system: SR
[11] = system: SK-MEL-5
[12] = system: SK-MEL-28
[13] = system: HCT-15
[14] = system: SK-MEL-2
[15] = system: HT-29
[16] = system: RXF 393
[17] = system: TK-10
[18] = system: PC-3
[19] = system: MDA-MB-435
[20] = system: Hs-578T

SMILES	GI50 [1]	GI50 [2]	GI50 [3]	GI50 [4]	GI50 [5]	GI50 [6]	GI50 [7]	GI50 [8]	GI50 [9]	GI50 [10]	GI50 [11]	GI50 [12]	GI50 [13] [µM]	GI50 [14]	GI50 [15]	GI50 [16]	GI50 [17]	GI50 [18]	GI50 [19]	GI50 [20]
Oc1c(C(Nc2cccc3cccnc23)c2ccccc2)ccc2cccnc12 (stereo not drawn)	9.48 µM (inactive)	4.05 µM (inactive)	5.6 µM (inactive)	14.2 µM (inactive)	4.11 µM (inactive)	12.9 µM (inactive)	3.49 µM (inactive)	4.38 µM (inactive)	3.32 µM (inactive)	2.61 µM (inactive)	–	–	–	–	–	–	–	–	–	–
Nc1nc(=O)c2c([nH]1)NCC(CNc1ccc(C(=O)N[C@@H](CCC(=O)O)C(=O)O)cc1)N2C=O (stereo partly drawn) [LEUCOVORIN CALCIUM]	14.8 µM (inactive)	> 125 µM (inactive)	> 125 µM (inactive)	> 125 µM (inactive)	> 125 µM (inactive)	> 95.3 µM (inactive)	> 125 µM (inactive)	> 125 µM (inactive)	39.5 µM (inactive)	–	> 125 µM (inactive)	> 125 µM (inactive)	> 125	40.4 µM (inactive)	> 125 µM (inactive)	> 125 µM (inactive)	–	–	–	–
CC(C)OP(=O)(OC(C)C)/C(=N/Nc1ccc([N+](=O)[O-])cc1)Nc1ccc(N/C(=N\Nc2ccc([N+](=O)[O-])cc2)P(=O)(OC(C)C)OC(C)C)cc1	> 100 µM (inactive)	–	4.15 µM (inactive)	2.65 µM (inactive)	21.4 µM (inactive)	71.8 µM (inactive)	> 100 µM (inactive)	37.2 µM (inactive)	4.79 µM (inactive)	5.66 µM (inactive)	6.98 µM (inactive)	> 100 µM (inactive)	6.21	48 µM (inactive)	–	–	89.9 µM (inactive)	–	–	–
O=S(O)CCCCCSSSCCCCCS(=O)O	53.5 µM (inactive)	–	15.5 µM (inactive)	> 100 µM (inactive)	35.3 µM (inactive)	85.5 µM (inactive)	6.5 µM (inactive)	24.5 µM (inactive)	14.6 µM (inactive)	3.48 µM (inactive)	–	39.8 µM (inactive)	–	25.9 µM (inactive)	> 100 µM (inactive)	14.4 µM (inactive)	29 µM (inactive)	–	–	–
COC(=O)C(=O)c1c2ccccc2n2ccc3c4ccccc4[nH]c3c12	> 10 µM (inactive)	> 10 µM (inactive)	> 10 µM (inactive)	> 10 µM (inactive)	> 10 µM (inactive)	> 10 µM (inactive)	> 10 µM (inactive)	> 10 µM (inactive)	> 10 µM (inactive)	> 10 µM (inactive)	> 10 µM (inactive)	–	> 10	> 10 µM (inactive)	> 10 µM (inactive)	> 10 µM (inactive)	> 10 µM (inactive)	> 10 µM (inactive)	> 10 µM (inactive)	3.07 µM (inactive)
O=C1CCC2=C(CCC2)N1CCc1ccc2c(c1)OCO2	95.1 µM (inactive)	> 100 µM (inactive)	48.2 µM (inactive)	> 100 µM (inactive)	21.6 µM (inactive)	42.6 µM (inactive)	> 100 µM (inactive)	84.9 µM (inactive)	25.7 µM (inactive)	30.9 µM (inactive)	24.5 µM (inactive)	> 100 µM (inactive)	43.1	29.9 µM (inactive)	92 µM (inactive)	1.21 µM (inactive)	76.9 µM (inactive)	32.5 µM (inactive)	–	49 µM (inactive)
Cc1ccn2c(=O)cc(-c3ccccc3)nc2c1	93.8 µM (inactive)	> 100 µM (inactive)	> 100 µM (inactive)	> 100 µM (inactive)	–	> 100 µM (inactive)	> 100 µM (inactive)	> 100 µM (inactive)	> 100 µM (inactive)	> 100 µM (inactive)	> 100 µM (inactive)	> 100 µM (inactive)	> 100	–	> 100 µM (inactive)	> 100 µM (inactive)	> 100 µM (inactive)	> 100 µM (inactive)	> 10 µM (inactive)	> 100 µM (inactive)
C=C1C(=O)O[C@@H]2[C@H](O)[C@@H](C)[C@@H]3C=CC(=O)[C@@]3(C)[C@H](OC(=O)C=C(C)C)[C@H]12	0.877 µM (active)	0.353 µM (active)	0.655 µM (active)	1.79 µM (inactive)	2.82 µM (inactive)	2.52 µM (inactive)	0.587 µM (active)	1.59 µM (inactive)	0.199 µM (active)	–	1.69 µM (inactive)	0.514 µM (active)	0.242	1.32 µM (inactive)	1.26 µM (inactive)	–	–	–	–	–
COC(=O)C1=C(C(=O)OC)C23CC1C1C(C(=O)OC)=C(C(=O)OC)C12C1C=CC3C2C(=O)OC(=O)C21 (stereo not drawn)	91.4 µM (inactive)	37.5 µM (inactive)	37.7 µM (inactive)	66.7 µM (inactive)	84.9 µM (inactive)	> 100 µM (inactive)	44.5 µM (inactive)	45.2 µM (inactive)	24 µM (inactive)	–	41.8 µM (inactive)	65.5 µM (inactive)	42.1	35 µM (inactive)	68.7 µM (inactive)	38.9 µM (inactive)	> 100 µM (inactive)	–	–	–
NC(CCCCO)C(=O)O (stereo not drawn)	–	> 100 µM (inactive)	–	> 100 µM (inactive)	> 100 µM (inactive)	> 100 µM (inactive)	> 100 µM (inactive)	> 100 µM (inactive)	> 100 µM (inactive)	> 100 µM (inactive)	> 100 µM (inactive)	> 100 µM (inactive)	> 100	> 100 µM (inactive)	> 100 µM (inactive)	> 100 µM (inactive)	> 100 µM (inactive)	> 100 µM (inactive)	> 100 µM (inactive)	> 100 µM (inactive)
CCCCCCCCCCCCCCCCCCOP(=O)([O-])OCC[N+](C)(C)C [OCTADECYLPHOSPHONOCHOLINE]	0.502 µM (active)	0.771 µM (active)	0.826 µM (active)	0.245 µM (active)	1.13 µM (inactive)	1.53 µM (inactive)	1.02 µM (active)	1.19 µM (inactive)	0.957 µM (active)	–	1.42 µM (inactive)	8.22 µM (inactive)	0.644	0.998 µM (active)	0.608 µM (active)	2.45 µM (inactive)	–	–	–	–
COC(=O)CCC(=O)c1ccc2c(c1)CCC2	–	> 100 µM (inactive)	> 100 µM (inactive)	> 100 µM (inactive)	> 100 µM (inactive)	> 100 µM (inactive)	> 100 µM (inactive)	> 100 µM (inactive)	> 100 µM (inactive)	> 100 µM (inactive)	> 100 µM (inactive)	> 100 µM (inactive)	> 100	> 100 µM (inactive)	> 100 µM (inactive)	> 100 µM (inactive)	> 100 µM (inactive)	> 100 µM (inactive)	> 100 µM (inactive)	> 100 µM (inactive)
COC(=O)C(NC(=O)c1ccccc1)C(c1c(O)cc(O)cc1O)P(=O)(OC)OC (stereo not drawn)	> 100 µM (inactive)	> 100 µM (inactive)	> 100 µM (inactive)	> 100 µM (inactive)	> 100 µM (inactive)	> 100 µM (inactive)	–	> 100 µM (inactive)	27.2 µM (inactive)	> 100 µM (inactive)	> 100 µM (inactive)	> 100 µM (inactive)	> 100	> 100 µM (inactive)	> 100 µM (inactive)	–	> 100 µM (inactive)	–	–	–
NC(=O)SCC(=O)Nc1ccc2ncccc2c1	56 µM (inactive)	> 100 µM (inactive)	> 100 µM (inactive)	> 100 µM (inactive)	> 100 µM (inactive)	> 100 µM (inactive)	56.1 µM (inactive)	71.3 µM (inactive)	36.1 µM (inactive)	49 µM (inactive)	43.4 µM (inactive)	> 100 µM (inactive)	55.1	46.8 µM (inactive)	> 100 µM (inactive)	–	54.7 µM (inactive)	64.9 µM (inactive)	48.3 µM (inactive)	67.3 µM (inactive)
N#CCCN(CCC#N)c1ccc(C(=N/c2ccc(Cl)cc2)/N=N/c2ccc(Cl)cc2)cc1	17.7 µM (inactive)	17.7 µM (inactive)	19 µM (inactive)	12.8 µM (inactive)	15.2 µM (inactive)	17.2 µM (inactive)	–	15 µM (inactive)	32.5 µM (inactive)	18.9 µM (inactive)	10.1 µM (inactive)	59.2 µM (inactive)	10.7	9.23 µM (inactive)	19.8 µM (inactive)	14.3 µM (inactive)	18.5 µM (inactive)	15.6 µM (inactive)	18.2 µM (inactive)	19.4 µM (inactive)
O=C(O)c1ccccc1CN1CCCC(C(=O)O)C1 (stereo not drawn)	> 100 µM (inactive)	> 100 µM (inactive)	> 100 µM (inactive)	–	> 100 µM (inactive)	> 100 µM (inactive)	> 100 µM (inactive)	> 100 µM (inactive)	> 100 µM (inactive)	> 100 µM (inactive)	> 100 µM (inactive)	> 100 µM (inactive)	> 100	> 100 µM (inactive)	> 100 µM (inactive)	> 100 µM (inactive)	> 100 µM (inactive)	> 100 µM (inactive)	> 100 µM (inactive)	> 100 µM (inactive)
Nc1ncnc2c1cnn2Cc1ccc(Cl)cc1	> 100 µM (inactive)	> 100 µM (inactive)	> 100 µM (inactive)	> 100 µM (inactive)	78.5 µM (inactive)	–	–	> 100 µM (inactive)	> 100 µM (inactive)	–	> 100 µM (inactive)	–	> 100	–	> 100 µM (inactive)	> 100 µM (inactive)	> 100 µM (inactive)	> 100 µM (inactive)	> 100 µM (inactive)	> 100 µM (inactive)
